Measured values reported in ChEMBL document CHEMBL4130518, “Apratoxin S10, a Dual Inhibitor of Angiogenesis and Cancer Cell Growth To Treat Highly Vascularized Tumors” (ACS Med Chem Lett, 2017).
Blank lines part the entries; values can stand above or below the molecule they belong to. Active and inactive are the calls of the source. The calls are words filed in the database; no cut-off is given here.

How the values were obtained:
[1] = Half life in KCl/HCl buffer at pH 2.32 after 24 hrs by HPLC-MS analysis; format: physicochemical
NCI-H727 [2] = assay: Antiproliferative activity against human NCI-H727 cells after 48 hrs by MTT assay; format: functional, cell-based; details: NCI-H727, 48 h
HCT-116 = assay: Antiproliferative activity against human HCT116 cells after 48 hrs by MTT assay; format: functional, cell-based; details: HCT-116, 48 h
A498 [3] = assay: Antiproliferative activity against human A498 cells after 48 hrs by MTT assay; format: functional, cell-based; details: A498, 48 h
Huh-7 [4] = assay: Antiproliferative activity against human HuH7 cells after 48 hrs by MTT assay; format: functional, cell-based; details: Huh-7, 48 h
HUVEC [5] = assay: Antiangiogenic activity in HUVEC assessed as inhibition of tube like structures formation at 100 nM to 1 uM after 14 hrs by matrigel based inverted microscopy; format: functional, cell-based; details: Homo sapiens
HUVEC [6] = assay: Antiangiogenic activity in HUVEC assessed as inhibition of tube like structures formation at < 100 nM after 14 hrs by matrigel based inverted microscopy; format: functional, cell-based; details: Homo sapiens
HUVEC [7] = assay: Antiangiogenic activity in HUVEC assessed as decrease in number of junctions at 10 pM after 14 hrs by branch point counting analysis; format: functional, cell-based; details: Homo sapiens
NCI-H727 [8] = assay: Inhibition of VEGF-A secretion in human NCI-H727 cells at 10 pM to 1 uM after 24 hrs by AlphaLISA based immuno assay; format: functional, cell-based
A498 [9] = assay: Inhibition of IL-6 secretion in human A498 cells at 10 pM to 1 uM after 24 hrs by AlphaLISA based immuno assay; format: functional, cell-based
A498 [10] = assay: Downregulation of MET in human A498 cells at 10 pM to 1 uM after 24 hrs by AlphaLISA based immuno assay; format: functional, cell-based
Huh-7 [11] = assay: Inhibition of VEGF-A secretion in human HuH7 cells at 10 pM to 1 uM after 24 hrs by AlphaLISA based immuno assay; format: functional, cell-based
NCI-H727 [12] = assay: Downregulation of VEGFR2 in human NCI-H727 cells at 10 pM to 1 uM after 24 hrs by AlphaLISA based immuno assay; format: functional, cell-based
HUVEC [13] = assay: Downregulation of VEGFR2 expression level in HUVEC at >= 10 nM after 14 hrs by immunoblot analysis; format: functional, cell-based; details: Homo sapiens
HUVEC [14] = assay: Antiangiogenic activity in HUVEC assessed as diminishing of branch points at 10 pM after 14 hrs by inverted microscopy; format: functional, cell-based; details: Homo sapiens
HUVEC [15] = assay: Antiangiogenic activity in HUVEC assessed as inhibition of tube like structures formation after 14 hrs by matrigel based inverted microscopy; format: functional, cell-based; details: Homo sapiens
NCI-H727 [16] = assay: Inhibition of IL-6 secretion in human NCI-H727 cells at 10 pM to 1 uM after 24 hrs by AlphaLISA based immuno assay; format: functional, cell-based
Huh-7 [17] = assay: Inhibition of IL-6 secretion in human HuH7 cells at 10 pM to 1 uM after 24 hrs by AlphaLISA based immuno assay; format: functional, cell-based
NCI-H727 [18] = assay: Downregulation of IGF1Rbeta in human NCI-H727 cells at 10 pM to 1 uM after 24 hrs by AlphaLISA based immuno assay; format: functional, cell-based
Huh-7 [19] = assay: Downregulation of FGFR4 in human HuH7 cells at 10 pM to 1 uM after 24 hrs by AlphaLISA based immuno assay; format: functional, cell-based
HUVEC [20] = assay: Cytotoxicity against HUVEC assessed as decrease in cell viability after 48 hrs by MTT assay; format: functional, cell-based; details: Homo sapiens
A498 [21] = assay: Inhibition of VEGF-A secretion in human A498 cells at 10 pM to 1 uM after 24 hrs by AlphaLISA based immuno assay; format: functional, cell-based
A498 [22] = assay: Downregulation of EGFR in human A498 cells at 10 pM to 1 uM after 24 hrs by AlphaLISA based immuno assay; format: functional, cell-based
HUVEC [23] = assay: Antiangiogenic activity in HUVEC assessed as inhibition of tube like structures formation at 10 pM to 1 uM after 14 hrs by matrigel based inverted microscopy; format: functional, cell-based; details: Homo sapiens

Compound: CC[C@H](C)[C@H]1C(=O)N2CCC[C@H]2C(=O)O[C@H](C(C)(C)C)C[C@@H](C)C[C@@H](O)[C@H](C)C2=N[C@H](CCC(=O)N[C@@H](Cc3ccc(OC)cc3)C(=O)N(C)[C@@H](C)C(=O)N1C)CS2
half-life [1]: > 24 h

Compound: CC[C@H](C)[C@H]1C(=O)N2CCC[C@H]2C(=O)O[C@H](C(C)(C)C)C[C@@H](C)C[C@@H](O)C(C)(C)C2=N[C@H](CCC(=O)N[C@@H](Cc3ccc(OC)cc3)C(=O)N(C)[C@@H](C)C(=O)N1C)CS2
IC50 (NCI-H727 [2]): 0.00255 µM | IC50 (HCT-116): 0.00147 µM | half-life [1]: > 24 h | IC50 (A498 [3]): 0.00335 µM | IC50 (Huh-7 [4]): 0.00083 µM

IC50 (NCI-H727 [2]): 10.1 µM | IC50 (Huh-7 [4]): 4.71 µM
Compound: CCN(CC)CCNC(=O)c1c(C)[nH]c(/C=C2\C(=O)Nc3ccc(F)cc32)c1C [SUNITINIB]
inhibition (HUVEC [5]): Active | inhibition (HUVEC [6]): inactive | IC50 (A498 [3]): 7.98 µM

Compound: CC[C@H](C)[C@@H]1C(=O)N2CCC[C@@H]2C(=O)O[C@H](C(C)(C)C)C[C@@H](C)C[C@@H](O)C(C)(C)C2=N[C@H](CCC(=O)N[C@@H](Cc3ccc(OC)cc3)C(=O)N(C)[C@@H](C)C(=O)N1C)CS2
Activity (HUVEC [7]): Active | inhibition (NCI-H727 [8]): Active | inhibition (A498 [9]): Active | Activity (A498 [10]): Active | inhibition (Huh-7 [11]): Active | Activity (NCI-H727 [12]): Active | Activity (HUVEC [13]): Active | Activity (HUVEC [14]): Active | inhibition (HUVEC [15]): Dose-dependent effect | inhibition (NCI-H727 [16]): Active | inhibition (Huh-7 [17]): Active | Activity (NCI-H727 [18]): Active | Activity (Huh-7 [19]): Active | Activity (HUVEC [20]): Active | inhibition (A498 [21]): Active | Activity (A498 [22]): Active

Compound: CC[C@H](C)[C@H]1C(=O)N2CCC[C@H]2C(=O)O[C@H](C(C)(C)C)C[C@@H](C)C[C@@H](O)[C@H](C)C2=N[C@@H](CCC(=O)N[C@@H](Cc3ccc(OC)cc3)C(=O)N(C)[C@@H](C)C(=O)N1C)CS2
half-life [1]: > 24 h

IC50 (NCI-H727 [2]): 14 µM | IC50 (Huh-7 [4]): 4.35 µM
Compound: COc1cc2nccc(Oc3ccc(NC(=O)C4(C(=O)Nc5ccc(F)cc5)CC4)cc3)c2cc1OC [CABOZANTINIB]
inhibition (HUVEC [23]): inactive | IC50 (A498 [3]): 8.46 µM

IC50 (NCI-H727 [2]): > 6.24 µM | IC50 (Huh-7 [4]): 25 µM
Compound: C#Cc1cccc(Nc2ncnc3cc(OCCOC)c(OCCOC)cc23)c1 [ERLOTINIB]
inhibition (HUVEC [23]): inactive | IC50 (A498 [3]): 12.5 µM

Compound: CC[C@H](C)[C@H]1C(=O)N2CCC[C@H]2C(=O)O[C@H](C(C)(C)C)C[C@@H](C)C[C@@H](O)C(C)(C)C2=N[C@@H](CCC(=O)N[C@@H](Cc3ccc(OC)cc3)C(=O)N(C)[C@@H](C)C(=O)N1C)CS2
IC50 (HCT-116): 0.00199 µM | half-life [1]: > 24 h
